Data set [1] has as its target T1, MMP-2 (human gelatinase A) (Homo sapiens, UniProt P08253).
T1 sequence (P08253 110-660): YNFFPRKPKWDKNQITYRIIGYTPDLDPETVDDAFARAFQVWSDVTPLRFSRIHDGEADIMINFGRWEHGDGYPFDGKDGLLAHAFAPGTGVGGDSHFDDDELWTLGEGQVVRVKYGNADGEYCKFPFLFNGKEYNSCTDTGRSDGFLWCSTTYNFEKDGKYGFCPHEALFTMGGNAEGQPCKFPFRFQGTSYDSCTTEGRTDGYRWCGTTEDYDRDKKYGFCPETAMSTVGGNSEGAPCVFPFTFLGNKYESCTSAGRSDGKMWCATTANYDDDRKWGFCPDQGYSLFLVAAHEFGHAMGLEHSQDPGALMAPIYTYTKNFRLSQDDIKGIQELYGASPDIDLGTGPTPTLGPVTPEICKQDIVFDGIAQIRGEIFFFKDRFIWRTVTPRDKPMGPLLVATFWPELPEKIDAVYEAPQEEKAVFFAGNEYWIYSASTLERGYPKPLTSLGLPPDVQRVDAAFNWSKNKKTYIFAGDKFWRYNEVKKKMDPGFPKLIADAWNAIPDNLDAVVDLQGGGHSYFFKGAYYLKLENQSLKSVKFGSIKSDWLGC
In words: Biochemical Assay (Protocol A): inhibition of human gelatinase A, fluorimetric peptide substrate. The settings on record: MMP-2, pH 7.4, 37° C. An excerpt: (§1) As mentioned above, although low molecular weight MMP inhibitors, including hydroxamates of general formula (A), are already known, there is a strong need for better and diversified molecules for their use in medicine, that is in particular in the control or prevention of degenerative joint diseases such as rheumatoid arthritis and osteoarthritis, or in the management of multiple sclerosis, or in the treatment of invasive tumors. […] For example, the following protocol was used to assess the biochemical activity of compounds of formula (I) against MMP-1, MMP-2, and MMP-3 (respectively, human interstitial collagenase, gelatinase A, and stromelysin-1).
(§2) Human gelatinase-A (MMP-2) was obtained as pro-enzyme (72 kDa) and was activated with 1 mM 4-aminophenylmercuric acetate for 30 min at 37° C. immediately prior to use. Human stromelysin-1 (MMP-3) was obtained as a recombinant pro-enzyme isolated either from E. coli or from baculovirus infected Sf9 insect cells and activated either by heat (1 h, 55° C.) or by 5 mg/l trypsin (30 min, 37° C.) before addition of soybean trypsin inhibitor, finally removed by centrifugation.
(§3) All enzyme assays to determine values of the enzyme-inhibitor dissociation constants were performed using the peptide substrate (7-methoxycoumarin-4-yl)Acetyl-Pro-Leu-Gly-Leu-(3-[2,4-dinitrophenyl]-L-2,3-diaminopropionyl)-Ala-Arg-NH2 (Mca-Pro-Leu-Gly-Leu-Dpa-Ala-Arg--NH2) (C. G. Knight et al., FEBS Lett. 296:263-266, 1992). The enzymes cleave at the Gly-Leu bond removing the internally quenching Dpa group. The release of the highly fluorescent peptide Mca-Pro-Leu was followed fluorimetrically setting the excitation wavelength at 326 nm (bandwidth 5 nm) and the emission at 392 nm (bandwidth 20 nm).
(§4) Continuous fluorescence assay was carried out using a Perkin Elmer LS-50 Fluorescence Spectrophotometer fitted with a thermostatted four position stirring cell changer. Inhibitors were dissolved in the assay buffer ([…] Tris/HCl pH 7.4 containing 0.15 M NaCl, 10 mM CaCl2, 0.01 mM ZnCl2 and 0.05% Brij 35) thermostatted at 37° C. The reaction was started by the addition of substrate ([…]), followed by the addition of the enzyme (e.g. 1.0 nM collagenase, 0.04 nM gelatinase, or 3.0 nM stromelysin) and the increase in fluorescence was monitored over 30 min. The run was repeated at different concentrations of inhibitors in the range 0.1-10000 nM and data at inhibitor concentration in the region if their enzyme-inhibitor dissociation constants were used for calculation.
(§5) Substrate consumption was within 5% of the initial concentration and data outside this range were discarded. The Michaelis constants (Km) for the enzyme-substrate complexes is […] or greater (C. G. Knight et al., reference above), so that the factor (1+S/Km) can be approximated to unity without appreciable error.

The target in data set [2] is T2, MMP-1 (human interstitial collagenase) (Homo sapiens, UniProt P03956).
T2 construct: truncated recombinant enzyme encompassing residues 101-269
T2 sequence (P03956 101-269): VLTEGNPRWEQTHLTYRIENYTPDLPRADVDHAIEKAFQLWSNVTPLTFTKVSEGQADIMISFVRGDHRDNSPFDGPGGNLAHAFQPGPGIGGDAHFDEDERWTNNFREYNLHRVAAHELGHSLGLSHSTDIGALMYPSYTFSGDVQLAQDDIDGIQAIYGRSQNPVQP
Nature of the data set: Biochemical Assay (Protocol A): inhibition of human collagenase, fluorimetric peptide substrate. The conditions noted are these: MMP-1, pH 7.4, 37° C.
Description: as §1, §2, §3, §4, §5

The nature of data set [3]: Aqueous solubility. Type of data set: physicochemical. The conditions noted are these: water, pH 7.0, 25° C. As for the experimental part:
Further, several compounds of formula (I), in particular when R2 is hydroxy, and when R1 is hydroxymethyl, have enhanced water solubility as compared to the vast majority of MMP inhibitors of the prior art. An aqueous solubility threshold, which may vary widely but can be roughly set in the range of 1-10 mg/mL, makes systemic administration easy, and more than often is essential to good oral bioavailability.

The target in data set [4] is T3, MMP-3 (human stromelysin-1) (Homo sapiens, UniProt P08254).
T3 construct: host or cells: E. coli or baculovirus-infected Sf9 insect cells
Nature of the data set: Biochemical Assay (Protocol A): inhibition of human stromelysin-1, fluorimetric peptide substrate. The settings on record: MMP-3, pH 7.4, 37° C.
Description: as §1, §2, §3, §4, §5

T3 sequence (P08254 100-477): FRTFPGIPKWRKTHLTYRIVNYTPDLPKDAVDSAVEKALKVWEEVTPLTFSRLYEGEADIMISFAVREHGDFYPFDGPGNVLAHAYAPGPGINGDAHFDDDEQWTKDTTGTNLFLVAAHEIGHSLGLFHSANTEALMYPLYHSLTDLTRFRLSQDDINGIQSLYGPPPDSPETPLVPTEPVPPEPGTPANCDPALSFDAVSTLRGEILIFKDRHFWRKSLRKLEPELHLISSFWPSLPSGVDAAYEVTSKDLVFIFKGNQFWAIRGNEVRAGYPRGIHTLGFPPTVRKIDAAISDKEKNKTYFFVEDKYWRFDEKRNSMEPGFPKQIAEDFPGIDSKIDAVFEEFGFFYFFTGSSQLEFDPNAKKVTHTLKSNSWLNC

As to `CNC(=O)[C@@H](NC(=O)[C@H](CC(C)C)[C@](O)(CO)C(=O)NO)C(C)(C)C` [Example 3], the Ki (commonly the dissociation constant of the complex between target and ligand, obtained from inhibition or displacement) was 9.2 nM in data set [1], 2.3 nM in data set [2] and 150 nM in data set [4]. In addition, the solubility (in general, the concentration that dissolves in the medium under given conditions) in data set [3] is more than 15 mg/mL.

For the origin of these results see US6194451A, “Matrix metalloproteinase inhibitors” (Pharmacia & Upjohn S.p.A., priority 1997, dated 2001).
